Laboratory results taken from a melting point compilation (Tetko et al.; mined from patent text by program, amines drawn as free bases though some values may be those of a salt).

| melting point | Compound |
| --- | --- |
| 102 to 106 °C | O=C(O)CC1CCCN(C(=O)c2ccc(NC(=O)COc3ccccc3)cc2)c2ccccc21 (stereo not given) |
| 120 to 124 °C | CCOC(OCC)c1ncn(C(c2ccccc2)(c2ccccc2)c2ccccc2)n1 |
| 68 to 69 °C | Fc1ccccc1-c1nnc(-c2ccccc2C(F)(F)F)o1 |
| 221 to 222 °C | O=C(O)c1ccc(OCCCc2cc(-c3ccc(C(F)(F)F)cc3)no2)cc1 |
| 204 °C | C=CCOc1ccc2c(c1)Oc1cc(O)ccc1C21OC(=O)c2ccccc21 (stereo not given) |
| 160 to 162 °C | COCc1c(C(=O)OC(C)C)ncc2[nH]c3cccc(-c4cccs4)c3c12 |
| 112 to 114 °C | CCCC(=O)NCCc1c[nH]c2ccc(OCc3ccccc3)cc12 |
| 92 °C | O=C1COC(CCCOC(=O)c2ccccc2)(c2ccc(Cl)c(Cl)c2)CN1 (stereo not given) |
| 214 to 215 °C | Nc1nc2ccccc2c2c1ncn2CCCCNC(=O)c1ccnc2ccccc12 |
| 138 to 139 °C | CC(C)c1cccc(C(C)C)c1NC(=O)CN1CCN(CCSc2nc3cccc(CO)c3o2)CC1 |
| 223 to 224 °C | COc1ccc(C(=O)Oc2ccc(S(N)(=O)=O)cc2)cc1C12CC3CC(CC(C3)C1)C2 |
| 243 °C | Cn1ncc(C(=O)N2CC(F)C2)c1C(=O)Nc1ccc2nc(-c3ccccc3)nn2c1 |
| 199 °C | CSc1ccc(C(=O)Nc2ccc3ccc(Cl)nc3n2)cc1 |
| 138 to 139 °C | CCOC(=O)c1ncc(C)c(-c2ccccc2)c1C(=O)N(CCO)Cc1cc(C(F)(F)F)cc(C(F)(F)F)c1 |
| 190 to 191 °C | CCCn1nc(-c2c(-c3ccc(F)cc3)nn3ccc(OC)cc23)ccc1=O |
| < 50 °C | CCCCc1nn2ccccc2c1Cc1ccc(Br)cc1 |
| 186 to 187 °C | O=C(Nc1ccc(CN2CCCC2)cc1)C1=Cc2cc(-c3ccccc3)ccc2CC1 |
| 122 to 124 °C | COc1cc2c(cc1C)CCN=C2CCc1ccc(Cl)cc1 |
| 159 °C | Cc1ccc2c(c1)[nH]c(=O)n2CCO |

| melting point | Compound |
| --- | --- |
| 93 to 95 °C | CN(C)Cc1noc(-c2nn(Cc3ccccc3)c3ccccc23)n1 |
| 134 to 135 °C | COc1ccc(-c2cc(-c3ccccc3)[nH]c2C(=O)NCc2ccc(C(=O)Nc3ccccc3S)cc2)cc1 |
| 222 to 224 °C | CN(C)C(=O)N(Cc1ccccc1)C(=O)c1cccc(-c2nc(=O)c3ccccc3s2)n1 |
| 247 to 249 °C | Cn1c(COc2ccc(C=C3SC(=O)NC3=O)cc2)nc2ccc(Sc3cc(C(C)(C)C)c(O)c(C(C)(C)C)c3)cc21 |
| 118 °C | COc1nc(-c2cccc(Cl)c2)c2cc(C(=O)N(C)OC)ccc2n1 |
| 215 to 217 °C | CC(=O)N1CC(NC(=O)Nc2cccc(C)c2)C(=O)N(CC(=O)c2ccccc2C)c2ccccc21 (stereo not given) |
| 249 to 250 °C | O=c1c2c(nc3ccc(Cl)cn13)C(=Cc1ccccc1Cl)CC2 |
| 104 to 106 °C | Cc1cn(N)c2ccc(OCc3ccccc3)cc12 |
| 124 to 125 °C | Clc1cc(CCc2ccccn2)c2oc(-c3cnc4ccccc4c3)nc2c1 |
| 201 to 203 °C | Nc1nc2ccccc2c2c1ncn2CCOCc1cc2ccccc2o1 |
| 214 to 216 °C | COC(=O)c1sc2c(c1N)c1ccccc1c(=O)n2-c1ccccc1Br |
| 131 °C | CNC(=O)c1cccc(NC(=O)CCc2ccccc2C)c1 |
| 222 to 224 °C | CCc1c2n(c3ccccc13)C(=O)C(Cc1nc[nH]c1C)CC2 (stereo not given) |
| 174 to 176 °C | CSC1C(=O)Nc2c(Nc3ccccc3)cccc21 (stereo not given) |
| 189 to 190 °C | CCCCN(c1cccc(-c2ccnc3c([N+](=O)[O-])cnn23)c1)S(=O)(=O)c1ccc(OC)cc1 |
| 110 to 112 °C | CCCc1cc(O)cc2nc(-c3ccc(O)cc3)oc12 |
| 216 to 217 °C | CCOc1cc(OC)ccc1C(CC(=O)Nc1cc(C(N)=O)ccc1C(C)(C)C)CC(C)C (stereo not given) |
| 64.5 to 65 °C | CCCc1ccc(OCCC(C)C)c2c(=O)cc(C(=O)O)oc12 |
| 178 to 179 °C | Cc1c(NC(=O)c2ccc(C3CCCCC3)cc2)ccc2cc(CN3CCCC3)cnc12 |

| melting point | Compound |
| --- | --- |
| 86 to 88 °C | CCC(CC)N(Cc1ccc(C(=O)O)cc1)S(=O)(=O)c1ccc(C)cc1 |
| 101 to 102 °C | CC(=O)NCc1ccc2c(Cl)cn(C3CCN(CCc4ccc(F)cc4)CC3)c2c1 |
| 225 to 226 °C | Cn1c(=O)nc(-c2ccccc2Cl)c2ccsc21 |
| 128 °C | CCc1nc2c(C)cc(C)nc2n1-c1ccc(CC(C)NC(=O)NS(=O)(=O)c2ccc(C)cc2)cc1 (stereo not given) |
| 82 to 85 °C | CCCc1c(OCCCSc2ccc(CC(=O)OC)c(Cl)c2Cl)ccc(C(C)=O)c1O |
| 140 °C | Fc1cnccc1Nn1ccc2cc(OCc3ccccc3)ccc21 |
| 75 to 77 °C | Cc1ccc(C)n1CCNC(=O)COc1ccc(Cl)cc1 |
| 142 to 145 °C | O=C(C=Cc1ccccc1)c1cc(Cl)ccc1O |
| 150 °C | COc1ccc(C2=NNC(N)(C3CCN(Cc4ccccc4)CC3)c3cc(OC)ccc32)cc1 (stereo not given) |
| 74 to 77 °C | COc1cccc(C(=O)C=Cc2cccc(O)c2)c1 |
| 137 to 138 °C | CCOP(=O)(Cc1ccc(NC(=O)C2=Cc3cc(C4CCCCC4)ccc3CC2)cc1)OCC |
| 203 °C | Cc1ccc(OC2CCN(C(=O)C(=O)Nc3ccc4[nH]c(=O)oc4c3)CC2)cc1 |
| 108 °C | O=S(=O)(CCOc1ccc(Cl)cc1)c1ccc(Cl)cc1 |
| 130 to 133 °C | COc1cccc([C@H]2O[C@H](Cc3nc(=O)o[nH]3)C(=O)N(CC(C)(C)C)c3ccc(Cl)cc32)c1OC |
| 84 to 85 °C | O=C(O)CCCCCCCCn1nc(-c2ccccc2)c(-c2ccccc2)n1 |
| 55 to 56 °C | O=C(NCCCc1ccccc1)Oc1ccccc1 |
| 301 to 303 °C | COc1cc(OC)c2c(=O)cc(-c3ccc(O)cc3)oc2c1 |
| 220 °C | CCn1c(N)c(-c2nccn2COCC[Si](C)(C)C)c(=O)c2ccc(-c3ccc(CC(=O)O)cc3)nc21 |
| 144 to 145 °C | Nc1ncnc2c1c(-c1ccc(Oc3ccccc3)cc1)cn2CCO |

Continued, molecule first:

| Compound | melting point |
| --- | --- |
| O=[N+]([O-])c1ccc(N(CCO)CCO)cc1 | 102 to 104 °C |
| CS(=O)(=O)Nc1ccc([N+](=O)[O-])nc1 | 187 to 189 °C |
| COc1c(C)cnc(C#N)c1C | 59 to 61 °C |
| CCOC(=O)c1cc2c(OCC3CO3)cc(C)cc2[nH]1 (stereo not given) | 173 to 175 °C |
| CC(C#Cc1ccc(C(=O)O)c(O)c1)c1ccc2c(c1)C(C)(C)CCC2(C)C (stereo not given) | 191 to 192 °C |
| Cc1c(OCCCCCCC(=O)N(CCO)C2CCCCC2)ccc2c1CN1CC(=O)NC1=N2 | 148 to 150 °C |
| CCc1cc(C(=O)O)c(S(N)(=O)=O)o1 | 186 °C |
| CC(C(=O)O)c1cccc2cn[nH]c12 (stereo not given) | 171 to 176 °C |
| COC(=O)CC[C@H]1CC[C@H](NC(=O)N(NC=O)c2ccc(C#N)cc2)CC1 | 140 to 142 °C |
| Nc1nc(-c2ccco2)nc2ccccc12 | 219 to 221 °C |
| C=CCC1(CCNC(=O)C2CC2)c2cc(OC)ccc2CCC12OCCO2 (stereo not given) | 94 to 95 °C |
| COc1c(N2C[C@H]3CC=C[C@@]3(N)C2)c(F)cc2c(=O)c(C(=O)O)cn([C@@H]3C[C@@H]3F)c12 | 206 to 208 °C |
| C#CCON=Cc1cc(Cl)ccc1O | 71 to 73 °C |
| CNC(=NC#N)NCCSCc1ccc(CN(C)C)o1 | 79 to 81.5 °C |
| COc1ccc2c(c1)CCC1C2CCC2(C)C(NCCCCCCNc3ccc([N+](=O)[O-])cc3[N+](=O)[O-])CCC12 (stereo not given) | 90 to 92 °C |
| O=S1(=O)NCN(C2CC2)c2ccc(C(F)(F)F)cc21 | 155 to 157 °C |
| O[C@@H]1Cc2ccccc2C[C@H]1N1CCN(c2ccccc2)CC1 (relative stereo) | 152 to 154 °C |
| c1csc(-c2cc(-c3cccs3)ncn2)c1 | 146 °C |
| Cc1nnc(OC(=O)NC(C)(C)C)n1-c1ccc(Cl)cn1 | 132 to 134 °C |
| Cc1[nH]cnc1CN1CC2COc3ccccc3N2C1=O (stereo not given) | 212 to 216 °C |
| CN(C)S(=O)(=O)c1ccc(C(N)=O)c(C(F)(F)F)c1 | 149 to 156 °C |
| CCCCCCCC(=O)NCc1ccsc1 | 71 to 72 °C |

| Compound | melting point |
| --- | --- |
| Clc1cccc(Cl)c1Cc1c[nH]cn1 | 142 to 145 °C |
| CCOc1ccccc1N(C[C@H]1CC[C@H](CN(C(=O)Nc2ccc(N(C)C)cc2)c2ccccc2OCC)CC1)C(=O)Nc1ccc(N(C)C)cc1 | 153 to 155 °C |
| CCOC(=O)CCCCCOc1c(/C=C/C(=O)CCc2ccccc2)occc1=O | 38.5 to 40 °C |
| N#CCCCCC(=O)c1ccc(Br)cc1 | 47 to 48 °C |
| COC1(c2cnc(OCc3ccc(/C(C)=N/O)cc3)s2)CCOCC1 | 107 to 109 °C |
| COC(=O)Nc1cc(=O)[nH]c(N)n1 | 186 to 188 °C |
| CCCCCCC(=O)Nc1cccc2c1C(=O)N(C1CCC(=O)NC1=O)C2=O (stereo not given) | 200 to 202 °C |
| CCCCCCCCCCOCc1ccc(CO)cc1 | 20 to 31 °C |
| COC(=O)c1cc(N)ccc1O | 93 to 95 °C |
| CCCCCCCCCCCCCCCCCC(=O)OC1CC(C)(C)N(OC(=O)CCCCCCCCCCCCCCCCC)C(C)(C)C1 | 62 to 65 °C |
| Cc1noc(NS(=O)(=O)c2ccc(Br)cc2)c1Br | 146 to 149 °C |
| CS(=O)(=O)OC1CCc2ccccc2C1 (stereo not given) | 60 to 62 °C |
| CC(C)C[C@H](NC(=O)[C@H](CC(=O)OC(C)(C)C)Cc1ccccc1)C(=O)N[C@@H](CC(C)C)[C@@H](O)c1nccs1 | 162 to 163 °C |
| CCc1cc(C)cc(CC)c1C1C(=O)C2=CC(COCOC)CC2C1=O (stereo not given) | 155 to 156 °C |
| C=CCN1CC(C)N(C(c2cccnc2)c2cccc(O)c2)CC1C (stereo not given) | 115 to 118 °C |
| CC(C)(C(=O)N(O)Cc1ccccc1Cl)C(Cl)Cl | 136 to 138 °C |
| CCCCCCCCCCCCCCCCCCOC(=O)C(N)Cc1ccc(O)cc1 (stereo not given) | 80 to 83 °C |
| NC(=O)Cc1ccc2c(c1)C(=O)Cc1cccnc1O2 | 214 to 217 °C |
| CCCCCCCCCC(O)C#CC(=O)O (stereo not given) | 65 to 66 °C |
| CCNC(=S)NCc1ccc(/C=C/C(c2cc(Cl)c(Cl)c(Cl)c2)C(F)(F)F)cc1Cl (stereo not given) | 88 to 91 °C |
| CC(=O)OC1(C(=O)COC(=O)c2ccccc2)CCC2C3CC(C)C4=CC(=O)C=CC4(C)C3C(O)CC21C (stereo not given) | 136 to 138 °C |
